Measurements from patent US11299457B2, “Chemical compounds” (GlaxoSmithKline Intellectual Property (No. 2) Limited, priority 2012, dated 2022).

Key:
[1] = system: castrated male rat (ORX): levator ani muscle and prostate; experiment: Castrated male rat model (ORX rat); type: in vivo; details: for prostate sparing: defined as at least a 2:1 ratio of levator ani ED50 to prostate ED50; for levator ani hypertrophy: favorable = 30% or greater increase in levator ani weight vs vehicle-treated castrates, dosed orally at up to 10 mg/kg/day
Text: Castrated Male Rat Model (ORX Rat)
The activity of the compounds of the present invention as modulators of the androgen receptor was investigated using a castrated male rat model (ORX) as described in C. D. Kockakian, Pharmac. Therap. B 1(2), 149-177 (1975); C. Tobin and Y. Joubert, Developmental Biology 146, 131-138 (1991); J. Antonio, J. D. Wilson and F. W. George, J Appl. Physiol. 87(6) 2016-2019 (1999)) the disclosures of which herein are included by reference.
Androgens have been identified as playing important roles in the maintenance and growth of many tissues in both animals and humans. Muscles, like the levator ani and bulbocavernosus, and sexual accessory organs, such as the prostate glands and seminal vesicles have high expression levels of the androgen receptor and are known to respond quickly to exogenous androgen addition or androgen deprivation through testicular ablation. Castration produces dramatic atrophy of muscle and sexual accessory organs; whereas the administration of exogenous androgens to the castrated animal results in effective hypertrophy of these muscles and sexual accessory organs. Although the levator ani muscle, also known as the dorsal bulbocavernosus, is not ‘true skeletal muscle’ and definitely sex-linked, it is reasonable to use this muscle to screen muscle anabolic activities of test compounds because of its androgen responsiveness and simplicity of removal.
Male Sprague-Dawley rats weighing 160-180 grams were used in the assay. The rats were singly caged upon receiving and throughout the study. Bilateral orchidectomies were performed in sterilized surgical conditions under isoflurane anesthesia. An anteroposterior incision was made in the scrotum. The testicles were exteriorized and the spermatic artery and vas deferens were ligated with 4.0 silk 0.5 cm proximal to the ligation site. The testicles then were removed by a surgical scissors distal to the ligation sites. The tissue stumps were returned to the scrotum, the scrotum and overlying skin were closed by a surgical stapler. The Sham-ORX rats underwent all procedures except ligation and scissors cutting. The rats were assigned randomly into study groups 7-10 days post surgery based on the body weight.
Dihydrotestosterone (DHT) and the standard SARM, S-22, (J. Pharma. Exper. Thera. Vol 315, p. 230) were used as a positive control (1-10 mg/kg s.c. for DHT and 0.1 to 3 mg/kg p.o. for S-22). Compounds of the current invention were administered subcutaneously or orally for 4-28 days. Alternatively, some compounds of the current invention were administered subcutaneously or orally for 7-49 days. The rats were weighed daily and doses were adjusted accordingly. The general well being of the animal was monitored throughout the course of the study.
At the end of the study, the rats were euthanized in a CO2 chamber. The ventral prostate glands (VP), seminal vesicles (SV), levator ani muscle (LA) and bulbocavernosus (BC) were carefully dissected. The tissues were blotted dry; the weights were recorded, and then saved for histological and molecular analysis. The VP and SV weights serve as androgenic indicators and LA and BC as anabolic indicators. The ratio of anabolic to androgenic activities was used to evaluate the test compounds. Serum luteinizing hormone (LH), follicle stimulating hormone (FSH) and other potential serum markers of anabolic activities were also analyzed.
In general, preferred compounds show levator ani hypertrophy and very little prostate stimulation.
The compounds shown in Examples 9, 20, 26, 27, 33, 51, 52, and 53 were tested in the castrated male rate model essentially as described above. Test compounds were employed in free or salt form. […] Prostate sparing was defined as at least a 2:1 ratio of levator ani ED50 to prostate ED50. The ED50 is defined as 50% of the maximum response above the vehicle treated castrate level. […]

[2] = target: androgen receptor (MBP-hAR-LBD, rat androgen ligand binding domain) (Rattus norvegicus (Rat), UniProt P15207); experiment: Androgen receptor fluorescence polarization assay; details: maximum of curve fit; max/min compared to absence of compound and 10^-5 M control compound
Procedure: The androgen receptor fluorescence polarization assay is used to investigate the interaction of the compounds with the androgen receptor.
Compounds are added to the 384 well black low-volume plates to a final volume of 0.1 μL. DTT and DMSO are added to the chilled assay buffer just before beginning assay. Sufficient Fluormone AL Red and AR-LBD are defrosted on ice and added to the chilled buffer in a glass tube to give a final concentration of 1 nM and 100 nM, (for current batch) respectively. A volume of 10 μL of the assay mix is added to compound plates with a multidrop. […] The plates are counted in a Discovery Analyst with suitable 535 nm excitation and 590 nm emission interference filters (Dichroic 561 nM). […] Test compounds are dissolved and diluted in DMSO. Compounds are assayed in singlicate, a four parameter curve fit of the following form being applied
[formula] where a is the minimum, b is the Hill slope, c is the IC50 and d is the maximum.
Data is presented as the mean pIC50 with the standard error of the mean of n experiments.

Sequence of androgen receptor (MBP-hAR-LBD, rat androgen ligand binding domain) (P15207 651-882): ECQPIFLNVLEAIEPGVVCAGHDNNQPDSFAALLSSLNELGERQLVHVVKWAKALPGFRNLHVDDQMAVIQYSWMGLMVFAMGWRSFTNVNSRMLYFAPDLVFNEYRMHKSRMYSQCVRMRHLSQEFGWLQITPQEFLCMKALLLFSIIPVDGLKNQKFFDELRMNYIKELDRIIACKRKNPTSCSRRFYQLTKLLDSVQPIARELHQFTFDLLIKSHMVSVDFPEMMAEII

SMILES: CC(CS(C)(=O)=O)n1ccc2c(C(F)(F)F)c(C#N)ccc21 (stereo not shown) [Example 26, 1-(1-(Methylsulfonyl)propan-2-yl)-4-(trifluoromethyl)-1H-indole-5-carbonitrile]
- prostate sparing [1]: spared the prostate
- levator ani hypertrophy [1]: favorable levator ani hypertrophy

SMILES: C[C@H](CS(C)(=O)=O)n1ccc2c(C(F)(F)F)c(C#N)ccc21 [Example 27, (R)-1-(1-(Methylsulfonyl)propan-2-yl)-4-(trifluoromethyl)-1H-indole-5-carbonitrile]
- prostate sparing [1]: spared the prostate
- levator ani hypertrophy [1]: favorable levator ani hypertrophy

SMILES: CC[C@H](c1cncc(C#N)c1)n1ccc2c(C#N)c(C#N)ccc21 [Example 51, (R)-1-(1-(5-Cyanopyridin-3-yl)propyl)-1H-indole-4,5-dicarbonitrile]
- prostate sparing [1]: spared the prostate
- levator ani hypertrophy [1]: favorable levator ani hypertrophy

SMILES: Cc1cc2c(C(F)(F)F)c(C#N)ccc2n1C(C)CS(C)(=O)=O (stereo not shown) [Example 9, 2-Methyl-1-(1-(methylsulfonyl)propan-2-yl)-4-(trifluoromethyl)-1H-indole-5-carbonitrile]
- prostate sparing [1]: spared the prostate
- levator ani hypertrophy [1]: favorable levator ani hypertrophy

SMILES: C[C@@H](n1ccc2c(Cl)c(C#N)ccc21)[C@](C)(O)C(F)(F)F [Example 52, 4-Chloro-1-((2R,3S)-4,4,4-trifluoro-3-hydroxy-3-methylbutan-2-yl)-1H-indole-5-carbonitrile]
- prostate sparing [1]: spared the prostate
- levator ani hypertrophy [1]: favorable levator ani hypertrophy

SMILES: C[C@@H](n1ccc2c(C(F)(F)F)c(C#N)ccc21)[C@](C)(O)C(F)(F)F [Example 53, 1-((2R,3S)-4,4,4-Trifluoro-3-hydroxy-3-methylbutan-2-yl)-4-(trifluoromethyl)-1H-indole-5-carbonitrile]
- prostate sparing [1]: spared the prostate
- levator ani hypertrophy [1]: favorable levator ani hypertrophy

SMILES: C[C@H](n1ccc2c(C(F)(F)F)c(C#N)ccc21)C(C)(C)O [Example 21, (S)-1-(3-Hydroxy-3-methylbutan-2-yl)-4-(trifluoromethyl)-1H-indole-5-carbonitrile]
- % Max [2]: 100%
